# Measured values: US7101701B2, “Method to reduce contamination when culturing mycobacteria” (The Trustees of the University of Pennsylvania, priority 2004, dated 2006)
# Where no end group is shown, it is not given here.
# Key:
# chymotrypsin = details: Pep5 variant; cited from earlier work
# at least some strains = details: when used with at least some strains; cited from earlier work
# MAP ATCC# 700535 = assay: MGIT 960 liquid culture of MAP isolate dilutions, time to positive; format: cell-based, Mycobacterium avium subsp. paratuberculosis; details: for TTP (days): 600 ul EY
# Procedure: (§1) Middlebrook 7H9 broth was prepared by suspending 4.7 grams Middlebrook 7H9 dehydrated base (BD Diagnostics, Sparks, Md.) in 900 ml of double distilled water. The solution was autoclaved for 20 minutes at 121° C., and stored in a refrigerator when not in use. A 50% egg yolk suspension was stored in a refrigerator. Nisin was prepared in 1–2 M hydrochloride acid (HCl) at a concentration of 100 mg/ml. ANV cocktail (5 mg/ml) was prepared from the individual antibiotics and stored frozen.
# Dilutions of MAP ATCC# 700535 were prepared as follows. A working stock vial, at 10^−2, stored at −70° C. freezer, was thawed in a 37° C. incubator. Using individually-wrapped, sterile glass pipettes, a serial dilution series was made in sterile 15 ml conical tubes. One (1) ml of MAP at 10^−2 was diluted into 9 ml of 7H9 medium and mixed well to yield a 10^−3 solution. One ml of this solution was diluted into another tube of 9 ml 7H9 to yield a 10^−4 solution. This process was repeated again to produce a 10^−5 solution. The serial dilutions were plated on HEYM flasks, 100 ul dilution per flask, and placed in an incubator.
# (§2) Cultures were set up in MGIT™ tubes (BD Diagnostics, Sparks, Md.). MGIT™ tubes contain an oxygen-sensitive fluorescent compound, tris 4,7-diphenyl-1,10-phenanthroline ruthenium chloride pentahydrate, in silicone base that detects growth by increased fluorescence as oxygen consumption in the culture increases. The tubes were barcoded for scanning in a BACTEC™ MGIT™ 960 machine (BD Diagnostics, Sparks, Md.).
# (§3) Vials of nisin and ANV, stored in a standard freezer, were thawed in a 37° C. incubator. Egg yolk, OADC or OACC (BD Diagnostics, Sparks, Md.) and 7H9, stored in a standard refrigerator, were warmed in a 37° C. incubator. Using sterile pipet tips (autoclaved), components were aliquoted into barcoded MGIT™ culture tubes as follows: OADC or OACC (800 μl); 50% egg yolk suspension (600 μl except for […] control tubes having 60 μl. The volume difference in volume made up by 7H9); 7H9; 5 mg/ml ANV (30 μl); 100 mg/ml nisin (quantity determined by desired final concentration); and organism sample (100 μl). 7H9 was added at the quantity needed to bring the final volume of each tube to 8.9 ml, so that the tubes had identical head space. After all components were added, tubes were tightly capped and inverted three times. The tubes were placed in the MGIT™ 960 machine and scanned in after they registered as unknown at the next hourly reading.
# (§4) The experiment was designed to test a MAP isolate (ATCC# 700535) at three different concentrations (MAP 10^−3, MAP 10^−4 and MAP 10^−5). Three field samples (processed fecal matter) named Annabelle, Heidi and Meck 42 were also tested in the experiment. Seven conditions were tested for effectiveness against bacterial contamination in mycobacterial cultures: ANV alone, five different nisin concentrations and HCl, the diluent for nisin. Generally, each sample was tested in triplicate for each solution. There were eleven additional control tubes; two tubes for additives (5 μl nisin and 30 μl ANV) and 9 tubes for weekly performance (no ANV and 60 μl 50% egg yolk suspension; WP). The WP tubes were used to monitor test performance and reproducibility over time.
# Acid Fast bacillus = assay: Acid fast smears (Ziehl-Neelson) of culture tubes; format: cell-based, Mycobacterium avium subsp. paratuberculosis; details: for Acid Fast Results or CFUs: per replicate tube
# Source text: One of the most distinctive properties of Mycobacteria is the impermeability of their lipid-rich cell walls to various basic dyes, unless the dye is combined with phenol. Once stained, the cells resist decolorization with acidified organic solvents, and are, therefore called “acid fast.” Acid fast staining methods include, but are not limited to, Ziehl-Neelsen (ZN) carbolfuchsin staining, fluorochrome staining (auromine O and rhodamine B) and Kinyoun carbolfuchsin staining.
# [1] = tested on: bacterial contamination and MAP in processed fecal field samples (Annabelle, Heidi, Meck 42); assay: MGIT 960 liquid culture of processed fecal field samples, time to positive / contamination; format: cell-based, Mycobacterium avium subsp. paratuberculosis; details: for TTP (days): 50000 ug nisin per tube, 1 tube only
# Procedure: as §1
# Vials of processed fecal field samples, Annabelle, Heide and Meck 42, stored at −70° C., were thawed in a 37° C. incubator. The samples had been previously processed according to the Cornell modified decontamination and inoculation method as described in Whitlock et al., supra (2000).
# as §2, §3, §4
# [2] = Meck and Annabelle samples, tubes 4F and 7F (10000 ug nisin)
substance,measurement,setting,value
"A19C Pep5: Pep5 variant from the literature (TAGPAIRASVKQCQKTLKCTRLFTVSCKGKNGCK; also: lantibiotic Pep5: thioether rings and dehydro residues not placed; UniProt P19578 27-60, looked up, variant A19C)",stability to chymotrypsin,chymotrypsin,more stable to chymotrypsin
"L6V gallidermin: gallidermin variant from the literature (IASKFVCTPGCAKTGSFNSYCC; cysteine pairing not given here; also: lantibiotic lanthionine modifications not placed; UniProt P21838 31-52, looked up, variant L6V)",antibacterial activity,at least some strains,enhanced antibacterial activity
"nisin (ITSISLCTPGCKTGALMGCNMKTATCHCSIHVSK; cysteine pairing not given here; also: lantibiotic lanthionine modifications not placed; UniProt P13068 24-57, looked up) [34 amino acid pentacyclic class A lantibiotic peptide produced by Lactococcus lactis; stock 100 mg/ml in HCl]",TTP (days),"MAP ATCC# 700535; MAP 10^−4, 500 ug nisin per tube, three replicate tubes",19.3–20.6–No gu's
same,TTP (days),"MAP ATCC# 700535; MAP 10^−4, 50000 ug nisin per tube",No gu's
same,TTP (days),"MAP ATCC# 700535; MAP 10^−5, 5000 ug nisin per tube, three replicate tubes",32.4–38.7–2 gu's
same,reduction of TTP compared to 30 ul ANV,"MAP ATCC# 700535; nisin at 10,000 ug/tube, tubes 3A and 3F (MAP 10^−5)",approximately 30%
same,inhibitory effect on MAP growth,MAP ATCC# 700535; nisin with 600 ul EY,little inhibitory effect on MAP growth
same,Acid Fast Results or CFUs,"Acid Fast bacillus; Annabelle field sample, 10000 ug nisin per tube",4+Pos–4+Pos–ND
same,Acid Fast Results or CFUs,"Acid Fast bacillus; Heidi field sample, 500 ug nisin per tube",4+Pos–4+Pos–ND
same,Acid Fast Results or CFUs,"Acid Fast bacillus; Heidi field sample, 1000 ug nisin per tube",4+Pos–4+Pos–ND
same,Acid Fast Results or CFUs,"Acid Fast bacillus; Heidi field sample, 5000 ug nisin per tube",4+Pos–3+Pos–ND
same,Acid Fast Results or CFUs,"Acid Fast bacillus; Heidi field sample, 10000 ug nisin per tube",4+Pos–ND–ND
same,Acid Fast Results or CFUs,"Acid Fast bacillus; MAP 10^−3, 10000 ug nisin per tube",4+Pos–4+Pos–ND
same,Acid Fast Results or CFUs,"Acid Fast bacillus; Meck 42 field sample, 1000 ug nisin per tube",ND–ND–4+Pos
same,Acid Fast Results or CFUs,"Acid Fast bacillus; Meck 42 field sample, 5000 ug nisin per tube",BC–4+Pos–4+Pos
same,Acid Fast Results or CFUs,"Acid Fast bacillus; Meck 42 field sample, 10000 ug nisin per tube",ND–4+Pos–4+Pos
same,AFB (acid-fast bacilli smears),Acid Fast bacillus; [2],4+Positive
same,time to recover TNTC animals,"[1]; 600 ul 50% egg yolk suspension, nisin approximately 5000 to 10,000 ug per tube",< 15 days
same,TTP (days),[1]; Annabelle field sample,43.7 (1 tube only) days
same,TTP (days),[1]; Heidi field sample,No gu's (1 tube only)
same,TTP (days),[1]; Meck 42 field sample,54.4 (1 tube only) days
same,time at which tubes flagged positive,[1]; [2],14 to 17 days
same,control of non-mycobacterial contamination and MAP growth,"[1]; field samples, particularly at 10,000 ug nisin",controlled non-mycobacterial contamination with little retardation of MAP growth
